From ChEMBL document CHEMBL3856287, “Synthesis of novel tetrazole derivatives and evaluation of their antifungal activity” (Bioorg Med Chem, 2016)
Values after ≈ are worked out from the molar mass of the structure shown.

Tests used:
[1] = tested on: Aspergillus niger; assay: Antifungal activity against Aspergillus niger ATCC 16404 assessed as radial growth inhibition at 64 ug/ml after 5 to 7 days relative to control; type: functional; settings: read-out: GI
[2] = Antifungal activity against Colletotrichum coccodes MC1 assessed as radial growth inhibition at 64 ug/ml after 5 to 7 days relative to control; type: functional
[3] = Antifungal activity against Fusarium sambucinum MF1 assessed as radial growth inhibition at 64 ug/ml after 5 to 7 days relative to control; type: functional
[4] = Antifungal activity against Fusarium oxysporum MF5 assessed as radial growth inhibition at 64 ug/ml after 5 to 7 days relative to control; type: functional
[5] = tested on: Candida albicans; assay: Antifungal activity against Candida albicans ATCC 90028 assessed as growth inhibition at 16 ug/ml after 48 hrs by broth microdilution method relative to control; type: functional; settings: ATCC 90028, 48 h, read-out: GI
[6] = tested on: Candida albicans; assay: Antifungal activity against Candida albicans ATCC 90028 assessed as growth inhibition at 8 ug/ml after 48 hrs by broth microdilution method relative to control; type: functional; settings: ATCC 90028, 48 h, read-out: GI
[7] = tested on: Candida albicans; assay: Antifungal activity against Candida albicans ATCC 90028 assessed as growth inhibition at 4 ug/ml after 48 hrs by broth microdilution method relative to control; type: functional; settings: ATCC 90028, 48 h, read-out: GI
[8] = tested on: Candida albicans; assay: Antifungal activity against Candida albicans ATCC 90028 assessed as growth inhibition at 2 ug/ml after 48 hrs by broth microdilution method relative to control; type: functional; settings: ATCC 90028, 48 h, read-out: GI
[9] = tested on: Candida albicans; assay: Antifungal activity against Candida albicans ATCC 90028 assessed as growth inhibition at 1 ug/ml after 48 hrs by broth microdilution method relative to control; type: functional; settings: ATCC 90028, 48 h, read-out: GI
[10] = tested on: Candida albicans; assay: Antifungal activity against Candida albicans ATCC 90028 assessed as growth inhibition at 0.5 ug/ml after 48 hrs by broth microdilution method relative to control; type: functional; settings: ATCC 90028, 48 h, read-out: GI
[11] = tested on: Candida albicans; assay: Antifungal activity against Candida albicans ATCC 90028 assessed as growth inhibition at 0.25 ug/ml after 48 hrs by broth microdilution method relative to control; type: functional; settings: ATCC 90028, 48 h, read-out: GI
[12] = tested on: Candida albicans; assay: Antifungal activity against Candida albicans ATCC 90028 assessed as growth inhibition at 0.125 ug/ml after 48 hrs by broth microdilution method relative to control; type: functional; settings: ATCC 90028, 48 h, read-out: GI
[13] = tested on: Candida albicans; assay: Antifungal activity against Candida albicans ATCC 90028 assessed as growth inhibition at 0.0625 ug/ml after 48 hrs by broth microdilution method relative to control; type: functional; settings: ATCC 90028, 48 h, read-out: GI
[14] = tested on: Candida albicans; assay: Antifungal activity against Candida albicans ATCC 90028 assessed as growth inhibition at 0.0313 ug/ml after 48 hrs by broth microdilution method relative to control; type: functional; settings: ATCC 90028, 48 h, read-out: GI
[15] = Toxicity in last instar larval stage of Galleria mellonella assessed as decrease in survival at 0.33% after 96 hrs
[16] = tested on: Candida albicans; assay: Antifungal activity against Candida albicans ATCC 90028 assessed as growth inhibition after 48 hrs in presence of osmotic protector 0.8 M sorbitol by broth microdilution method; type: functional; settings: ATCC 90028, 48 h
[17] = tested on: Candida albicans; assay: Antifungal activity against Candida albicans ATCC 90028 assessed as growth inhibition after 7 days in presence of osmotic protector 0.8 M sorbitol by broth microdilution method; type: functional; settings: ATCC 90028, 168 h
[18] = tested on: Candida albicans; assay: Fungicidal activity against Candida albicans ATCC 90028 at MIC after 7 days in presence of osmotic protector 0.8 M sorbitol by broth microdilution method; type: functional
[19] = tested on: Candida albicans; assay: Fungicidal activity against Candida albicans ATCC 90028 at MIC after 48 hrs in presence of osmotic protector 0.8 M sorbitol by broth microdilution method; type: functional
[20] = tested on: Candida albicans; assay: Antifungal activity against Candida albicans ATCC 90028 assessed as growth inhibition after 48 hrs by broth microdilution method; type: functional; settings: ATCC 90028, 48 h
[21] = tested on: Candida albicans; assay: Antifungal activity against Candida albicans ATCC 90028 assessed as growth inhibition after 18 to 48 hrs in presence of 1.25 ug/ml fluconazole by checkerboard assay; type: functional
[22] = tested on: Candida albicans; assay: Antifungal activity against Candida albicans ATCC 90028 assessed as fractional inhibitory concentration after 18 to 48 hrs in presence of fluconazole by checkerboard assay; type: functional
[23] = tested on: Candida albicans; assay: Antifungal activity against Candida albicans ATCC 90028 assessed as fractional inhibitory concentration index after 18 to 48 hrs in presence of fluconazole by checkerboard assay; type: functional
[24] = tested on: Candida albicans; assay: Antifungal activity against Candida albicans ATCC 90028 after 18 to 48 hrs in presence of 80 ug/ml fluconazole by checkerboard assay; type: functional
[25] = tested on: Candida albicans; assay: Antifungal activity against Candida albicans ATCC 90028 after 18 to 48 hrs in presence of 40 ug/ml fluconazole by checkerboard assay; type: functional
[26] = tested on: Candida albicans; assay: Antifungal activity against Candida albicans ATCC 90028 after 18 to 48 hrs in presence of 20 ug/ml fluconazole by checkerboard assay; type: functional
[27] = tested on: Candida albicans; assay: Antifungal activity against Candida albicans ATCC 90028 after 18 to 48 hrs in presence of 10 ug/ml fluconazole by checkerboard assay; type: functional
[28] = tested on: Candida albicans; assay: Antifungal activity against Candida albicans ATCC 90028 after 18 to 48 hrs in presence of 5 ug/ml fluconazole by checkerboard assay; type: functional
[29] = tested on: Candida albicans; assay: Antifungal activity against Candida albicans ATCC 90028 after 18 to 48 hrs in presence of 2.5 ug/ml fluconazole by checkerboard assay; type: functional
[30] = tested on: Candida albicans; assay: Antifungal activity against Candida albicans ATCC 90028 after 18 to 48 hrs in presence of 1.25 ug/ml fluconazole by checkerboard assay; type: functional
[31] = Toxicity in last instar larval stage of Galleria mellonella assessed as survival at 16 ug/ml after 96 hrs
[32] = tested on: Aspergillus niger; assay: Antifungal activity against Aspergillus niger ATCC 16404 assessed as radial growth inhibition at 16 ug/ml after 5 to 7 days relative to control; type: functional; settings: read-out: GI
[33] = Antifungal activity against Colletotrichum coccodes MC1 assessed as radial growth inhibition at 16 ug/ml after 5 to 7 days relative to control; type: functional
[34] = Antifungal activity against Fusarium sambucinum MF1 assessed as radial growth inhibition at 16 ug/ml after 5 to 7 days relative to control; type: functional
[35] = Antifungal activity against Fusarium oxysporum MF5 assessed as radial growth inhibition at 16 ug/ml after 5 to 7 days relative to control; type: functional
[36] = tested on: Candida albicans; assay: Fungicidal activity against Candida albicans ATCC 90028 after 48 hrs by broth microdilution method; type: functional; settings: ATCC 90028, 48 h
[37] = tested on: Aspergillus niger; assay: Antifungal activity against Aspergillus niger ATCC 16404 assessed as radial growth inhibition at 32 ug/ml after 5 to 7 days relative to control; type: functional; settings: read-out: GI
[38] = Antifungal activity against Colletotrichum coccodes MC1 assessed as radial growth inhibition at 32 ug/ml after 5 to 7 days relative to control; type: functional
[39] = Antifungal activity against Fusarium sambucinum MF1 assessed as radial growth inhibition at 32 ug/ml after 5 to 7 days relative to control; type: functional
[40] = Antifungal activity against Fusarium oxysporum MF5 assessed as radial growth inhibition at 32 ug/ml after 5 to 7 days relative to control; type: functional

Structure (SMILES) | inhibition of growth at 64 µg/mL [1] [%] | growth inhibition (GI) [2] [%] | growth inhibition (GI) [3] [%] | growth inhibition (GI) [4] [%] | inhibition of growth at 16 µg/mL [5] [%] | inhibition of growth at 8 µg/mL [6] [%] | inhibition of growth at 4 µg/mL [7] [%] | inhibition of growth at 2 µg/mL [8] [%] | inhibition of growth at 1 µg/mL [9] [%] | inhibition of growth at 0.5 µg/mL [10] [%] | inhibition of growth at 0.25 µg/mL [11] [%] | inhibition of growth at 0.125 µg/mL [12] [%] | inhibition of growth at 0.0625 µg/mL [13] [%] | inhibition of growth at 0.0313 µg/mL [14] [%] | other results
c1ccc(-c2nnn(CCCSc3nc4ccccc4s3)n2)cc1 | 4.4 | 23.4 | 13 | 0 |  |  |  |  |  |  |  |  |  |  | 
Cc1ccc(-c2nnn(CCCSc3nc4ccccc4o3)n2)cc1 | 11.8 | 43.4 | 16 | 0 |  |  |  |  |  |  |  |  |  |  | 
Clc1ccc(-c2nnn(CCCSc3nc4ccccc4s3)n2)cc1 | 0 | 36.7 | 5 | 0 |  |  |  |  |  |  |  |  |  |  | 
Clc1ccccc1-c1nnn(CCCSc2nc3ccccc3s2)n1 | 0 | 16.7 | 5 | 0 | 98.8 | 98.6 | 98.7 | 98 | 98.7 | 98.6 | 98.7 | 99 | 98.9 | 98.8 | 
Cc1ccc(-c2nnn(CCCSc3nc4ccccc4s3)n2)cc1 | 3 | 33.4 | 0 | 0 | 98.8 | 99 | 98.9 | 98.6 | 98.9 | 98.7 | 98.6 | 98.8 | 98.8 | 98.8 | 
C[S+](C)[O-] [DIMETHYL SULFOXIDE] |  |  |  |  |  |  |  |  |  |  |  |  |  |  | Activity [15]: Non-Toxic
O=S(=O)(CCn1nnc(-c2ccccc2)n1)c1ccccc1 | 18.5 | 41.1 | 14.5 | 17.7 | 99.1 | 99.1 | 98.9 | 99 | 99 | 98.9 | 99 | 98.7 | 99 | 99.1 | 
O=S(=O)(CCn1nnc(-c2ccc(Cl)cc2)n1)c1ccccc1 | 11.2 | 18.4 | 1.8 | 1.7 |  | 99.5 | 99.4 | 99.4 | 99.4 | 99.4 | 99.3 | 99.3 |  | 99 | 
O=S(=O)(CCn1nnc(-c2ccccc2Cl)n1)c1ccccc1 | 17.1 | 43.4 | 35.6 | 31.2 | 98.5 | 98 | 97.8 | 97.9 | 98.2 | 98.2 | 98.1 | 97.8 | 98.4 | 98.6 | 
Clc1ccc(-c2nnn(CCCSc3nc4ccccc4o3)n2)cc1 | 11.8 | 46.7 | 14.5 | 4 | 99.2 | 99.4 | 98.7 | 99.5 | 99.3 | 99.4 | 99.2 | 99.1 | 99.1 | 99 | MIC [16]: 1 µg/mL; MIC [17]: 1 µg/mL; Activity [18]: 100%; Activity [19]: 100%; MIC [20]: > 16 µg/mL; MIC [21]: 1.25 µg/mL; Ratio [22]: 0.08; fractional inhibitory concentration index (FICI) [23]: 5.08; Activity [24]: 100%; Activity [25]: 100%; Activity [26]: 98%; Activity [27]: 99%; Activity [28]: 99%; Activity [29]: 100%; Activity [30]: 100%; survival at 96 h [31]: 100%
C[C@@H]1[C@H](O)[C@@H](C)/C=C/C=C/C=C/C=C/C=C/C=C/C=C/[C@H](O[C@@H]2O[C@H](C)[C@@H](O)[C@H](N)[C@@H]2O)C[C@@H]2O[C@](O)(C[C@@H](O)C[C@@H](O)[C@H](O)CC[C@@H](O)C[C@@H](O)CC(=O)O[C@H]1C)C[C@H](O)[C@H]2C(=O)O [AMPHOTERICIN B] |  |  |  |  |  |  |  |  |  |  |  |  |  |  | inhibition of growth at 16 µg/mL [32]: 100%; growth inhibition (GI) [33]: 86.7%; growth inhibition (GI) [34]: 86%; growth inhibition (GI) [35]: 77%
Clc1ccccc1-c1nnn(CCCSc2nc3ccccc3o2)n1 | 6 | 33.4 | 14.5 | 0 | 99.1 | 99.2 | 99.2 | 99.1 | 99.1 | 98.9 |  |  |  |  | MIC [16]: 1 µg/mL; MIC [17]: 1 µg/mL; Activity [18]: 97%; MIC [20]: > 16 µg/mL; MIC [21]: 1.25 µg/mL; Activity [24]: 100%; Activity [25]: 100%; Activity [26]: 100%; Activity [27]: 100%; Activity [28]: 100%; Activity [29]: 100%; Activity [30]: 100%; survival at 96 h [31]: 100%
OC(Cn1cncn1)(Cn1cncn1)c1ccc(F)cc1F [FLUCONAZOLE] |  |  |  |  |  |  |  |  |  |  |  |  |  |  | MIC [20]: 0.25 µg/mL (≈ 0.816 µM); MFC [36]: 0.5 µg/mL (≈ 1.63 µM); inhibition of growth at 32 µg/mL [37]: 52.9%; growth inhibition (GI) [38]: 100%; growth inhibition (GI) [39]: 67.7%; growth inhibition (GI) [40]: 17.6%
c1ccc(-c2nnn(CCCSc3nc4ccccc4o3)n2)cc1 | 20.6 | 43.4 | 27 | 6 |  |  |  |  |  |  |  |  |  |  | 
